Data on 5 compounds can be found in ChEMBL document CHEMBL1129197, “A rapid synthesis of some 5-amino- nucleosides and nucleotides as potential antiviral compounds” (Bioorg Med Chem Lett, 1996).

Each structure is given as a SMILES string. A value given as a limit tells only on which side of the number the result lay.

Assay [1] can be described thus: Ratio of CC50 to EC50 against HIV-1/C8166 cells was evaluated. Type of assay: functional.
For assay [2], the system named is C8166. In words: Compound was evaluated for inhibitory activity against HIV-1 infected C8166 cells. It counts as functional, cell-based. The settings on record: Homo sapiens.
In assay [3] the test system is C8166. In words: Concentration which reduces the viability of uninfected C8166 cells by 50%. Type of assay: functional. The settings on record: Homo sapiens.

`Cc1cn(C2CC(N=[N+]=[N-])C(CN3C(=O)c4ccccc4C3=O)O2)c(=O)[nH]c1=O` (centres undefined): the Selectivity in assay [1] stood at 10. Besides, a half-maximal response with C8166 [2] (EC50) required 100 µM. In the assay with C8166 [3], the midpoint of cytotoxicity, the CC50, lay at 1000 µM.
Consider `Cc1cn(C2CC(N=[N+]=[N-])C(CN)O2)c(=O)[nH]c1=O` (centres undefined), for which the Selectivity in assay [1] is on record as over 25. In the assay with C8166 [2], this compound returned an EC50 of 40 µM. In the assay with C8166 [3], the CC50 is over 1000 µM.
`Cc1cn2c(nc1=O)OC1CC2OC1CN1C(=O)c2ccccc2C1=O` (centres undefined): the Selectivity in assay [1] is given as over 2.5. Besides, the response in the assay on C8166 [2] was half-maximal at 400 µM (EC50). The compound also registered a CC50 in the assay on C8166 [3] of over 1000 µM.
As for `Cc1cn([C@H]2C[C@H](N=[N+]=[N-])[C@@H](CO)O2)c(=O)[nH]c1=O` [ZIDOVUDINE], the Selectivity in assay [1] is 62500. The same compound registered a CC50 in the assay on C8166 [3] of over 1000 µM.
For the compound `Cc1cn(C2CC(N=[N+]=[N-])C(CNP(=O)(OCC(Cl)(Cl)Cl)OCC(Cl)(Cl)Cl)O2)c(=O)[nH]c1=O` (centres undefined), in assay [1], the Selectivity is 3.3. Also, the EC50 in the assay with C8166 [2] stood at 30 µM. Also, in the assay with C8166 [3], half-maximal cytotoxicity (CC50) was put at 100 µM.

The EC50 is the concentration at which the effect is half-maximal. Broadly, the CC50 is the concentration at which the toxic effect on the cells reaches its halfway point. Read a low CC50 as greater toxicity to the cells.
